For seven compounds, IC50 and Ki results are on record in patent US20110046066A1, “INHIBITORS OF IAP” (GENENTECH, INC., priority 2008, published 2011).

In general, pIC50 refers to the IC50 on a negative log10 scale, so that one unit is a factor of ten. As a reminder, the pKi is the Ki on a negative log10 scale, so that one unit is a factor of ten.

Assay [1] concerns the target T1, C-IAP1 BIR3 (Homo sapiens, UniProt Q13490).
T1 construct: 0.2 μM C-IAP1 BIR3
Nature of the assay: Fluorescence polarization peptide binding assay, C-IAP1 BIR3. The following applies: for pIC50: 0.2 μM C-IAP1 BIR3, 5 nM AVP-diPhe-FAM probe, one hour incubation; for pKi: determined from the IC50 values (procedure of Keating et al.). Here is the method:
(§1) Polarization experiments were performed on an Analyst HT 96-384 reader (Molecular Devices Corp.) in order to determine dissociation constants (Kd) between IAP protein BIR domains and the fluorescent probe. Samples for fluorescence polarization affinity experiments were prepared by addition of serial dilutions of IAP BIR domains (C-IAP1 BIR3, C-IAP-2 BIR3, ML/X-IAP chimera MLXBIR3SG and X-IAP BIR3) in polarization buffer (50 mM Tris [pH 7.2], 120 mM NaCl, 1% bovine globulins 5 mM DTT and 0.05% octylglucoside) to 5-carboxyflourescein-conjugated AVPdi-Phe-NH2 (AVP-diPhe-FAM) at 5 nM final concentration.
(§2) The reactions were read after an incubation time of 1 hour at room temperature with standard cut-off filters for the fluorescein fluorophore (λex=485 nm; λem=530 nm) in 384-well black plates (Molecular Devices Corp.). Fluorescence polarization values were plotted as a function of the protein concentration, and the effective concentration 50 (EC50) values were obtained by fitting the data to a 4-parameter equation using Kaleidagraph software (Synergy software, Reading, Pa.). The apparent Kd values were determined from the EC50 values. Inhibition Constants (Ki values) for the antagonists were determined by the addition of 0.06 μM MLXBIR3SG, 0.5 μM X-IAP BIR3, 0.2 μM C-IAP1 BIR3 or 0.4 μM C-IAP-2 BIR3 to wells containing 5 nM of the AVP-diPhe-FAM probe as well as 1:3 serial dilutions of antagonist compounds starting at a concentration of 200 μM in the polarization buffer. Samples were read after an incubation time of one hour. Fluorescence polarization values were plotted as a function of the antagonist concentration, and the IC50 values were obtained by fitting the data to a 4-parameter equation using Kaleidagraph software (Synergy software, Reading, Pa.). Ki values for the antagonists were determined from the IC50 values according to the procedure of Keating, S. M., Marsters, J, Beresini, M., Ladner, C., Zioncheck, K., Clark, K., Arellano, F., and Bodary, S. (2000) in Proceedings of SPIE: In Vitro Diagnostic Instrumentation (Cohn, G. E., Ed.) pp 128-137, Bellingham, Wash. […] All values are micromolar.
For orientation: In fluorescence polarisation assays a small probe gives low polarisation when free and higher when bound to something large.

The target of assay [2] is T2, C-IAP2 BIR3 (Homo sapiens, UniProt Q13489).
T2 construct: 0.4 μM C-IAP-2 BIR3
The assay can be described thus: Fluorescence polarization peptide binding assay, C-IAP2 BIR3. The settings on record: for pIC50: 0.4 μM C-IAP-2 BIR3, 5 nM AVP-diPhe-FAM probe, one hour incubation; for pKi: determined from the IC50 values (procedure of Keating et al.). Here is the method: as §1, §2

For assay [3], the target named is T3, ML/X-IAP chimera MLXBIR3SG (Homo sapiens, UniProt Q96CA5, S150G).
T3 sequence (Q96CA5 with tags, fused parts or gaps S150G): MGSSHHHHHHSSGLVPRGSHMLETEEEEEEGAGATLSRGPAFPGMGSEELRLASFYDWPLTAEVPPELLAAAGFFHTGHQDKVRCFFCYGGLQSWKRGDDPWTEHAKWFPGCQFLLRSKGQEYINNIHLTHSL
Nature of the assay: Fluorescence polarization peptide binding assay, MLXBIR3SG. The settings on record: for pIC50: 0.06 μM MLXBIR3SG, 5 nM AVP-diPhe-FAM probe, one hour incubation; for pKi: determined from the IC50 values (procedure of Keating et al.). The method, then:
The following fluorescence polarization experiments used a chimeric BIR domain referred to as MLXBIR3SG in which 11 of 110 residues correspond to those found in XIAP BIR3, while the remainder correspond to ML-IAP BIR. […] The improved caspase-9 inhibition of the chimeric BIR domain MLXBIR3SG has been correlated with increased inhibition of doxorubicin-induced apoptosis when transfected into MCF7 cells.
as §1, §2

For assay [4], the target named is T4, X-IAP BIR3 (Homo sapiens, UniProt P98170).
T4 construct: 0.5 μM X-IAP BIR3
Nature of the assay: Fluorescence polarization peptide binding assay, X-IAP BIR3. The settings on record: for pIC50: 0.5 μM X-IAP BIR3, 5 nM AVP-diPhe-FAM probe, one hour incubation; for pKi: determined from the IC50 values (procedure of Keating et al.). Here is the method:
as §1, §2

pIC50, pKi: −log10 of the molar value.

T1 sequence (Q13490 253-363 limits assumed): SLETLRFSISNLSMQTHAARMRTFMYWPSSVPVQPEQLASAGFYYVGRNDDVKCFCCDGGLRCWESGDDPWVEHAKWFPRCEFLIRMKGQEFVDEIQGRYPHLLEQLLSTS
T2 sequence (Q13489 238-349 limits assumed): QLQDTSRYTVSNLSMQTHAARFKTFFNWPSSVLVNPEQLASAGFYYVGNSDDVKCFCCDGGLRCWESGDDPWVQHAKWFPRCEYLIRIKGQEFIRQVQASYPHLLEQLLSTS
T4 sequence (P98170 241-356 limits assumed): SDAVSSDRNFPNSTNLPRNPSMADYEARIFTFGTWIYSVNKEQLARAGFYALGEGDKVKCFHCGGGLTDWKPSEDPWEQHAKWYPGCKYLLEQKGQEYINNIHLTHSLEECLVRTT

For the compound `CN[C@@H](C)C(=O)N[C@H](C(=O)N[C@H](C(=O)Nc1snnc1-c1ccccc1)C1(C)CCOCC1)C1CCCCC1` [Compound 3], the pIC50 in assay [1] was 6.61; in assay [2], 6.57; in assay [3] it was 6.75; in assay [4], 4.95. Further, the negative-log Ki (pKi) is 7.42 in assay [1], 7.23 in assay [2], 7.39 in assay [3] and 5.70 in assay [4].
`CN[C@@H](C)C(=O)N[C@H](C(=O)N[C@H](C(=O)NCC(c1ccccc1)c1ccccc1)C(C)(C)O)C(C)C` [Compound 12]: the negative logarithm of the IC50 (pIC50) in assay [1] is 5.16; in assay [2] it was 4.72; in assay [3] it was 5.59; in assay [4], less than 3.70. Further, the pKi in assay [1] was 5.97; in assay [2], 5.38; in assay [3], 6.24; in assay [4], less than 4.46.
`CN[C@@H](C)C(=O)N[C@H](C(=O)N[C@H](C(=O)Nc1snnc1-c1ccccc1)C(C)(C)OC)C1CCCCC1` [Compound 2]: the negative-log IC50 (pIC50) in assay [1] is 6.72; in assay [2] it was 6.59; in assay [3], 6.55; in assay [4], 4.95. Moreover, the pKi in assay [1] is 7.52; in assay [2], 7.26; in assay [3] it was 7.19; in assay [4] it was 5.70.
For the compound `CN[C@@H](C)C(=O)N[C@H](C(=O)N[C@H](C(=O)NCC(c1ccccc1)c1ccccc1)C(C)(C)SC)C1CCCCC1` [Compound 13], the pIC50 in assay [1] was 5.41; in assay [2], 5.20; in assay [3], 5.37; in assay [4] it was less than 3.70. For the same compound, the pKi in assay [1] is 6.22; in assay [2] it was 5.87; in assay [3], 6.02; in assay [4], less than 4.46.
For the compound `CN[C@@H](C)C(=O)N[C@H](C(=O)N(C)[C@H](C(=O)Nc1ccccc1-c1ncccn1)C(C)C)C1CCCCC1` [Compound 7], the pIC50 in assay [1] is 4.85; in assay [2], 4.57; in assay [3], less than 3.70; in assay [4], less than 3.70. Besides, the negative logarithm of the Ki (pKi) is 5.51 in assay [1], 5.34 in assay [2], less than 4.34 in assay [3] and less than 4.46 in assay [4].
As for `CN[C@H](C)C(=O)N[C@@H](C(=O)N[C@@H](C(=O)NCC(c1ccccc1)c1ccccc1)C(C)(C)C)C1CCCCC1` [Compound 15], the pIC50 in assay [1] is 5.44; in assay [2] it was 5.12; in assay [3] it was 5.54; in assay [4] it was less than 3.70. The negative-log Ki (pKi) in assay [1] is 6.25; in assay [2], 5.79; in assay [3], 6.18; in assay [4] it was less than 4.46.
As to `CN[C@@H](C)C(=O)N[C@H](C(=O)N(C)[C@H](C(=O)Nc1snnc1-c1ccccc1)C(C)(C)C)C1CCCCC1` [Compound 24, (S)-2-((S)-2-cyclohexyl-N-methyl-2-((S)-2-(methylamino)propan-amido)acetamido)-3,3-dimethyl-N-(4-phenyl-1,2,3-thiadiazol-5-yl)butanamide], the pIC50 in assay [1] is 5.88; in assay [2] it was 5.88; in assay [3] it was 5.39; in assay [4] it was less than 3.70. In addition, the negative-log Ki (pKi) in assay [1] was 6.69; in assay [2], 6.55; in assay [3], 6.03; in assay [4], less than 4.46.
